According to patent US7217710B2, “Substituted pyrazolopyrimidines” (SmithKline Beecham Corporation, priority 2001, dated 2007):

Tests used:
[1] = molecular target: T1, GST-TIE2 (intracellular domains of human TIE2) (Homo sapiens, UniProt Q02763); assay: TIE-2 Enzyme Assay (TIE2-E2), LANCE method; format: biochemical; settings: for IC50: read-out: TIE2 PIC50 TIE2-E2 assay
T1 construct: made in house
Method in brief: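 GST-tagged human TIE2 intracellular domain (aa 762–1104), preactivated 2 h with 80 μM ATP, then 5 nM enzyme run 2 h at room temperature with 1 μM biotinylated D1–15 peptide, 80 μM ATP, HEPES pH 7.4, 2.4% DMSO. Phosphotyrosine detected by LANCE (Eu anti-pTyr/streptavidin-APC) after EDTA stop; IC50 by nonlinear regression, reported as pIC50.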

[2] = molecular target: T2, TIE2 intracellular domain/c-fms extracellular domain (TIE2/c-fms) chimeric protein (Homo sapiens, UniProt Q02763); assay: TIE-2 Autophosphorylation Assay (TIE2-C); format: cell-based; settings: TIE2/c-fms expressing mouse 3T3 cells
T2 construct: fused on or other part: c-fms (CSF1R) extracellular domain in place of TIE2's own ectodomain; it serves as the capture handle for the anti-c-fms ELISA; P07333 (Macrophage colony-stimulating factor 1 receptor)
Experimental: TIE-2 Autophosphorylation Assay (TIE2-C)
The TIE-2 autophosphorylation assay uses an ELISA method and a TIE2 intracellular domain/c-fms extracellular domain (TIE2/c-fms) chimeric protein expressing mouse 3T3 cell line. This assay measures the autophosphorylation level of TIE2 protein expressed in cells. The cells are cultured in 96 well plates and grown in high glucose DMEM containing 10% serum at 37° C. in a humidified 10% CO2, 90% air incubator. On the day of the assay, the serum containing medium is removed from the cells and replaced with serum free medium for one hour. The test compound (diluted from a 10 mM stock in DMSO, final DMSO concentration is 0.1%) is incubated with TIE2/c-fms expressing cells for 30 minutes in serum free DMEM. Intrinsic cellular dephosphorylation of the receptor is blocked by the addition of the tyrosine phosphatase inhibitor, sodium orthovanadate, from a 100 mM aqueous stock to a final concentration of 1 mM. The culture media is removed by aspiration and the cells incubated for 30 to 60 mins on ice with lysis buffer containing 137 mM NaCl, 2 mM EDTA, 10% glycerol, 1 mM sodium ortho vanadate, 1×tyrosine phosphatase inhibitor cocktail (Sigma) and complete protease inhibitor cocktail (Roche) in 20 mM Tris-HCl (pH8.0). The cell extracts are transferred into Rat anti-c-fms antibody (Zymed-clone 12-2d6) ([…]) coated 96 well plates and incubated for 12 hrs at 4 degrees. The extracts are removed by aspiration and the plate, washed in a buffer comprising PBS, 0.05% Tween-20, 0.05% NP-40 and 5% SuperBlock (Pierce) followed by incubation with an HRP (horseradish peroxidase) conjugated anti-phosphotyrosine antibody, (Upstate Biotech) The plates are again washed with the aforementioned wash buffer and the colorimetric HRP substrate, TMB is added. The reaction progresses for 90 seconds and is stopped with the addition of 2M H2SO4. The optical density at 450 nm derived from HRP catalyzed TMB is measured with a plate reader capable of reading at the appropriate wavelength (e.g. SpectroMax from Molecular Dynamics). The percent inhibition of activity is calculated relative to non-vanadate treated control wells. The concentration of test compound that inhibits 50% of activity (IC50) is interpolated using nonlinear regression (Levernberg-Marquardt) and the equation, y=Vmax (1−x/(K+x))+Y2, where “K” is equal to the IC50.

GST-VEGFR2 = molecular target: T3, GST-VEGFR2 (Homo sapiens, UniProt P35968); assay: VEGF-R2 Enzyme Assay (VEGF-E2), LANCE method; format: biochemical; settings: for IC50: read-out: VEGFR2 PIC50 VEGFR-E2 assay
T3 construct: GST-VEGFR2, baculovirus expressed recombinant constructs of the intracellular domains; made in house

[3] = molecular target: T4, catalytic domain of human VEGFR3 (Homo sapiens, UniProt P35916, H890Q); assay: VEGFR-3 Homogenous Time-Resolved Fluorescence Assay (VEGFR-3-HTRF); format: biochemical; settings: for IC50: read-out: VEGFR3 PIC50 VEGFR-3-HTRF assay
T4 construct: made in house; host or cells: Sf9 insect cells (baculovirus, pFastBac1)
Method in brief: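 GST-tagged human VEGFR3 catalytic domain (aa 819–1298, Sf9-expressed), pre-autophosphorylated 45 min with ATP/Mg, then 1 nM enzyme with 0.36 μM biotinylated peptide, 75 μM ATP, 10 mM MgCl2, pH 7.2, 1.5 h at room temperature. EDTA stop; HTRF detection; IC50 from hyperbolic fit of % control.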

Recombinant GST-Tie2 = Recombinant GST-Tie2 (Homo sapiens, UniProt Q02763); assay: Tie2 Fluorescence Polarization Kinase Activity Assay (TIE2-FP); format: biochemical
Experimental: Tie2 Fluorescence Polarization Kinase Activity Assay: (TIE2-FP)
Activation of Recombinant Tie2 Activation:
Recombinant GST-Tie2 is activated by incubating the enzyme in 20 mM Tris-HCl, pH 7.5, 12 mM MgCl2, 100 mM NaCl, 20 μM sodium vanidate, 1 mM DTT and 300 μM ATP at room temperature for 2 hours. The activation mixture is then passed through a NAP-25 desalting column (Pharmacia Biotech cat. no. 17-0852-02) to remove the free ATP. The activated enzyme is stored as aliquots at −80° C. in 20 mM Tris-HCl, pH 7.5 and 100 mM NaCl.
The final assay conditions are 50 mM HEPES, pH 7.5, 5% DMSO (when screening compounds), 200 μM ATP, 5 mM MgCl2, 1 mM DTT, 50 μM sodium vanidate, 1 nM activated enzyme, and 200 μM peptide. IC50's of compounds are measured under subsaturating ATP (200 μM) and varying concentrations of activated Tie2 and peptide substrate (RFWKYEFWR-OH; MW 1873 Da, TFA salt). Panvera Anti-phosphotyrosine antibody (Cat#P2840) and PTK Green Tracer (Cat#P2842) are used to detect the phosphorylated peptide. Polarization is measured on a TECAN Polarion in 138-second cycles for 30 minutes at room temperature. IC50's are then determined from the % polarization using normal calculation methods. The IC50 values are converted to pIC50 values, i.e., −log IC50 in Molar concentration.

Sequence of Recombinant GST-Tie2 (Q02763 23-1124): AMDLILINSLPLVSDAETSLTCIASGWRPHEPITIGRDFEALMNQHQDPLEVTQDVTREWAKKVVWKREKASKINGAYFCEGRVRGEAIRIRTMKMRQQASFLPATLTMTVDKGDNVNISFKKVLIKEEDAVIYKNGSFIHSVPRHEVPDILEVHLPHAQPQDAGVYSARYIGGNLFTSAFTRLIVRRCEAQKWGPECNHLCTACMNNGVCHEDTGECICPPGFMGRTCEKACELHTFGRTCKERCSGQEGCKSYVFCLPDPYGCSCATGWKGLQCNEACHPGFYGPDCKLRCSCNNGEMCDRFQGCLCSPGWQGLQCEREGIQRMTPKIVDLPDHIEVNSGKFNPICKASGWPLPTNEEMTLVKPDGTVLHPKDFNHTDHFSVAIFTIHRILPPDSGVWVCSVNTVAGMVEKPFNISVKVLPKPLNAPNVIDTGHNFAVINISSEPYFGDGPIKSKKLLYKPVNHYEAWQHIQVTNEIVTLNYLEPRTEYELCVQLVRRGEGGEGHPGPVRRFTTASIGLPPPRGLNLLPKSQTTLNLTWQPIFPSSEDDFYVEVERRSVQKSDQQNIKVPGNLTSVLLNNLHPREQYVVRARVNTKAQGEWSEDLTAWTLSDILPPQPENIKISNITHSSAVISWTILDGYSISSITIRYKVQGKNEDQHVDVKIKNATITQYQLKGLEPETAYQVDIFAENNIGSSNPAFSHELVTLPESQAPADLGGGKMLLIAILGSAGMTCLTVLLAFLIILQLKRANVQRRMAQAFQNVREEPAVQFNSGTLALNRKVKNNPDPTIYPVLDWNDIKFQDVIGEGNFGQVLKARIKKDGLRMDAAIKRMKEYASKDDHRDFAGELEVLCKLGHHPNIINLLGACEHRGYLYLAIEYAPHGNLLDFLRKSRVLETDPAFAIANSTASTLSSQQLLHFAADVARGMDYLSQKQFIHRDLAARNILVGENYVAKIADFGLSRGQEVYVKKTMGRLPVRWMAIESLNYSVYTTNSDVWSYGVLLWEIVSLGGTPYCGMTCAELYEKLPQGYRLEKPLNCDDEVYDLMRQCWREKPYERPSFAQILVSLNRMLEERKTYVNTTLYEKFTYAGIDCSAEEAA
T1 sequence (Q02763 762-1104): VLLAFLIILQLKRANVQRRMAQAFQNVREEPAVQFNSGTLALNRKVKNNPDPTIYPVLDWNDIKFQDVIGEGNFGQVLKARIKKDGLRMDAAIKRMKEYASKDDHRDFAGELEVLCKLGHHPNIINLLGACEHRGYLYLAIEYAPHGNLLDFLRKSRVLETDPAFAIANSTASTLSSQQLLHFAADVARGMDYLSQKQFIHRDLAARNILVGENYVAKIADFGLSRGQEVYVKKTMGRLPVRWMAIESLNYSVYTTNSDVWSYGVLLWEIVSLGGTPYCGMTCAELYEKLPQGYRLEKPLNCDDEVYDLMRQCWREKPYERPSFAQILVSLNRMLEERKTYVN
T2 sequence (Q02763 whole entry, change not shown, the tested form may be a part): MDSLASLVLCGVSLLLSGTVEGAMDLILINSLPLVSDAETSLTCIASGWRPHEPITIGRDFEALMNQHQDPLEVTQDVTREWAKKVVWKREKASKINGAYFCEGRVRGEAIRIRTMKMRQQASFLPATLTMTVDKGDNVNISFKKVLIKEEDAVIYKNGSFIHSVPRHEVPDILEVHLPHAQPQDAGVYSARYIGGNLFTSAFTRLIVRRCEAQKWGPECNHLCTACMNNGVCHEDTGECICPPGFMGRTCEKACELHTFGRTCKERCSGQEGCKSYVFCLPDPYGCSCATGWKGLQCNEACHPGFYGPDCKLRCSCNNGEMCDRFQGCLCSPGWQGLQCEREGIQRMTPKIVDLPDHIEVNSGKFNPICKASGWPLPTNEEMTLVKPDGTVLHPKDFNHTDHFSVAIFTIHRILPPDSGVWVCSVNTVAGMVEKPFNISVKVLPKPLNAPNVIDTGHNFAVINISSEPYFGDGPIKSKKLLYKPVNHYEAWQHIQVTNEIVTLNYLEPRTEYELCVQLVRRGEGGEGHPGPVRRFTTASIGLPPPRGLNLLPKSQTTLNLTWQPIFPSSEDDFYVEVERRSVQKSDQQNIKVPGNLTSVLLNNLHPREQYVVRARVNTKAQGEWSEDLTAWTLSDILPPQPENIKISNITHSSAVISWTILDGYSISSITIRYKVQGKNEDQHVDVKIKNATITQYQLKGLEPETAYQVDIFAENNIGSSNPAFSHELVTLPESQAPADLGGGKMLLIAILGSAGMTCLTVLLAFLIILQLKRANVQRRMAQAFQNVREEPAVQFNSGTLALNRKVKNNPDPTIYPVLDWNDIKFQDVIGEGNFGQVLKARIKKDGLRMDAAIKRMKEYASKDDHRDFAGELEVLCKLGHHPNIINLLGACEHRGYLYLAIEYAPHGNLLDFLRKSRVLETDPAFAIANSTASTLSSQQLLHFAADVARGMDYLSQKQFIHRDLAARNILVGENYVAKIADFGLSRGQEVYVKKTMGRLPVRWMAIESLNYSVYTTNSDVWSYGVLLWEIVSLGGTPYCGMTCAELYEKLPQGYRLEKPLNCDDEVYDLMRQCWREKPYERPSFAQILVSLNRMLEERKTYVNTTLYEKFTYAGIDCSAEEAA
T3 sequence (P35968 786-1356 limits assumed): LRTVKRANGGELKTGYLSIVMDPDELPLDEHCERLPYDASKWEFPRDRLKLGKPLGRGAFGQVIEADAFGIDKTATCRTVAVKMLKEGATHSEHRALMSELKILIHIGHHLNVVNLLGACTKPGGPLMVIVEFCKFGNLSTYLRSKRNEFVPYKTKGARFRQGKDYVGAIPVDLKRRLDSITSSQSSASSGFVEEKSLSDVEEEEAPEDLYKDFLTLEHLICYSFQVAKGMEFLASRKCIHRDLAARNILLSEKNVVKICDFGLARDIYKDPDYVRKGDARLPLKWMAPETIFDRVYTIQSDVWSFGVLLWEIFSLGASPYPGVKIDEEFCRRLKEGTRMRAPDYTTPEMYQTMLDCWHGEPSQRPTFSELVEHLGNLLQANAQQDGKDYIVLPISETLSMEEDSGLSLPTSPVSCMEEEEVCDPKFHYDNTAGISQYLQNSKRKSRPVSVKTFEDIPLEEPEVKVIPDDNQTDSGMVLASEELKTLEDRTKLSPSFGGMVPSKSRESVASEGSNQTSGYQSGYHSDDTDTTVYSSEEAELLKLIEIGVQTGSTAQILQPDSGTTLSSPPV
T4 sequence (P35916 with tags, fused parts or gaps isoform P35916-1 H890Q): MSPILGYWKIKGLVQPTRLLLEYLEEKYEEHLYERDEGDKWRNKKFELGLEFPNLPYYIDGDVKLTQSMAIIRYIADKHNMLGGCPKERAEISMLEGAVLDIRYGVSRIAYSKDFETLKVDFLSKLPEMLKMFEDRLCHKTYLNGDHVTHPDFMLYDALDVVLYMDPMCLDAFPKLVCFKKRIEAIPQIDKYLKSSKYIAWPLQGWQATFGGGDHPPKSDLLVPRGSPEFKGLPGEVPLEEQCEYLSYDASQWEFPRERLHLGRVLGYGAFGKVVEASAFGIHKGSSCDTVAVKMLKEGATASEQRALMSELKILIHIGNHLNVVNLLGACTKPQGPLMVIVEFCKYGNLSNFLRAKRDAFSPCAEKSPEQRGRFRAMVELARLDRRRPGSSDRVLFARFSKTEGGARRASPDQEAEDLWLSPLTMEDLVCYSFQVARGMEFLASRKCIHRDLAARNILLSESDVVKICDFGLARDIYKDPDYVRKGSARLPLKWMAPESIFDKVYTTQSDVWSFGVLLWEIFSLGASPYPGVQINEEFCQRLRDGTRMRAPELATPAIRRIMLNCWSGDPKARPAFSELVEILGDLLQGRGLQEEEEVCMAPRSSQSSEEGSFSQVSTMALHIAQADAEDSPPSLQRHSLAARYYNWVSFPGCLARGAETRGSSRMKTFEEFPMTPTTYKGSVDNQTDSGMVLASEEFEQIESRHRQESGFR

Row | Compound | IC50 [2] | IC50 [1] | IC50 (GST-VEGFR2) | IC50 [3] | inhibition at 10 µM (Recombinant GST-Tie2) | further results
1 | 1-(5-tert-Butyl-isoxazol-3-yl)-3-{2-fluoro-4-[1-methyl-6-(3-(imidazol-1-yl propylamino)-1H-pyrazolo[3,4-d]pyrimidin-3-yl)-phenyl]} urea [Example 139] | 100 to 300 nM | – | – | – | – | TIE2 PIC50 TIE2-E2 assay [1]: ++++ (++++ = PIC50 = greater than or equal to 7.40); VEGFR2 PIC50 VEGFR-E2 assay (GST-VEGFR2): + (+ = PIC50 = 5.00 to less than 6.00); VEGFR3 PIC50 VEGFR-3-HTRF assay [3]: + (+ = PIC50 = 5.00 to less than 6.00)
2 | Cn1nc(-c2ccc(NC(=O)Nc3cc(C(F)(F)F)ccc3F)cc2)c2cnc(NCCO)nc21 [Example 29, 1-(2-Fluoro-5-trifluoromethyl-phenyl)-3-{4-[(2-hydroxy-ethylamino)-methyl-1H-pyrazolo[3,4-d]pyrimidin-3-yl]-phenyl}-urea] | – | – | – | – | – | IC50 (Recombinant GST-Tie2): 100 to 300 nM
3 | CCN(CC)CCNc1ncnc2c1c(-c1ccc(NC(=O)Nc3cc(C(F)(F)F)ccc3F)cc1)nn2C [Example 33, 1-{4-[(2-Diethylamino-ethylamino)-methyl-1H-pyrazolo[3,4-d]pyrimidin-3-yl]-phenyl}-3-(2-fluoro-5-trifluoromethyl-phenyl)-urea] | – | – | – | – | – | IC50 (Recombinant GST-Tie2): ≥ 300 nM
4 | Cn1nc(-c2ccc(NC(=O)Nc3cc(C(C)(C)C)on3)c(F)c2)c2cnc(NCCN3CCOCC3)nc21 [Example 57, 1-(5-tert-Butyl-isoxazol-3-yl)-3-{2-fluoro-4-[1-methyl-6-(2-morpholin-4-yl-ethylamino)-1H-pyrazolo[3,4-d]pyrimidin-3-yl]-phenyl}-urea] | 100 to 300 nM | ≤ 39.8 nM | 1000 to 10000 nM | 1000 to 10000 nM | – | –
5 | CN1CCN(CCCNc2ncc3c(-c4ccc(NC(=O)Nc5cc(C(F)(F)F)ccc5F)cc4)nn(C)c3n2)CC1 [Example 64] | ≥ 300 nM | ≤ 39.8 nM | > 10000 nM | > 10000 nM | – | –
6 | CC(C)n1nc(-c2ccc(NC(=O)Nc3cc(C(F)(F)F)ccc3F)cc2)c2cnc(NCCN3CCOCC3)nc21 [Example 78] | ≥ 300 nM | – | – | – | – | TIE2 PIC50 TIE2-E2 assay [1]: +++ (+++ = PIC50 = 7.00 to less than 7.40); VEGFR2 PIC50 VEGFR-E2 assay (GST-VEGFR2): + (+ = PIC50 = 5.00 to less than 6.00); VEGFR3 PIC50 VEGFR-3-HTRF assay [3]: + (+ = PIC50 = 5.00 to less than 6.00)
7 | Cn1nc(-c2ccc(NC(=O)Nc3cc(C(F)(F)F)ccc3F)cc2)c2cnc(NCCCN3CCOCC3)nc21 [Example 84] | ≥ 300 nM | ≤ 39.8 nM | 1000 to 10000 nM | > 10000 nM | – | –
8 | Cn1nc(-c2ccc(NC(=O)Nc3cc(C(F)(F)F)ccc3F)cc2)c2cnc(NCCN3CCNC3=O)nc21 [Example 90] | ≥ 300 nM | 39.8 to 100 nM | 1000 to 10000 nM | 1000 to 10000 nM | – | –
9 | Cn1nc(-c2ccc(NC(=O)Nc3cc(C(F)(F)F)ccc3F)cc2)c2cnc(NCCCCN3CCCC3)nc21 [Example 91, 1-(2-Fluoro-5-trifluoromethyl-phenyl)-3-{4-[1-methyl-6-[(4-pyrrolidin-1-yl)-butylamino]-1H-pyrazolo[3,4-d]pyrimidin-3-yl]-phenyl} urea] | 100 to 300 nM | ≤ 39.8 nM | 1000 to 10000 nM | 1000 to 10000 nM | – | –
10 | Cn1nc(-c2ccc(NC(=O)Nc3cc(C(F)(F)F)ccc3F)cc2)c2cnc(NCCCO)nc21 [Example 92, 1-(2-Fluoro-5-trifluoromethyl-phenyl)-3-{4-[1-methyl-6-(3-hydroxy-propylamino)-1H-pyrazolo[3,4-d]pyrimidin-3-yl]-phenyl} urea] | < 100 nM | ≤ 39.8 nM | 1000 to 10000 nM | 1000 to 10000 nM | – | –
11 | Cn1nc(-c2ccc(NC(=O)Nc3cc(C(F)(F)F)ccc3F)cc2)c2cnc(NCCCCO)nc21 [Example 93, 1-(2-Fluoro-5-trifluoromethyl-phenyl)-3-{4-[1-methyl-6-(4-hydroxy-butylamino)-1H-pyrazolo[3,4-d]pyrimidin-3-yl]-phenyl} urea] | 100 to 300 nM | ≤ 39.8 nM | 1000 to 10000 nM | 1000 to 10000 nM | – | –
12 | Cn1nc(-c2ccc(NC(=O)Nc3cc(C(F)(F)F)ccc3F)cc2)c2cnc(NCCCn3ccnc3)nc21 [Example 100, 1-(2-Fluoro-5-trifluoromethyl-phenyl)-3-{4-[1-methyl-6-(3-imidazol-1-yl-propylamino)-1H-pyrazolo[3,4-d]pyrimidin-3-yl]-phenyl} urea] | ≥ 300 nM | ≤ 39.8 nM | 100 to 1000 nM | 1000 to 10000 nM | – | –
13 | Cn1nc(-c2ccc(NC(=O)Nc3cc(C(C)(C)C)on3)c(F)c2)c2cnc(NCCCN3CCOCC3)nc21 [Example 134] | 100 to 300 nM | ≤ 39.8 nM | > 10000 nM | – | – | –
14 | Cn1cncc1CCNc1ncc2c(-c3ccc(NC(=O)Nc4cc(C(F)(F)F)ccc4F)cc3)nn(C)c2n1 [Example 146, 1-(2-Fluoro-5-trifluoromethyl-phenyl)-3-{4-[(1-methyl-6-(2-[3-methyl-3H-imidazol-4-yl)-ethylamino)-1H-pyrazolo[3,4-d]pyrimidin-3-yl]-phenyl]} urea] | ≥ 300 nM | 39.8 to 100 nM | – | 100 to 1000 nM | – | –
15 | Cn1nc(-c2ccc(NS(=O)(=O)c3cccc(Cl)c3Cl)cc2)c2cnc(NCCN3CCOCC3)nc21 [Example 147] | – | – | – | – | 49% | –
16 | Cn1nc(-c2ccc(NS(=O)(=O)c3ccccc3F)cc2)c2cnc(NCCN3CCOCC3)nc21 [Example 148] | – | – | – | – | 36% | –
17 | Cn1nc(-c2ccc(NS(=O)(=O)c3cc(Cl)sc3Cl)cc2)c2cnc(NCCN3CCOCC3)nc21 [Example 149] | – | – | – | – | 38% | –
18 | Cn1nc(-c2ccc(NS(=O)(=O)c3ccc(Cl)s3)cc2)c2cnc(NCCN3CCOCC3)nc21 [Example 150] | – | – | – | – | 41% | –
19 | Cc1cc(-c2nn(C)c3nc(NCCN4CCOCC4)ncc23)ccc1NS(=O)(=O)c1cccc(C(F)(F)F)c1 [Example 152] | – | – | – | – | 13% | –
20 | Cc1cc(-c2nn(C)c3nc(NCCN4CCOCC4)ncc23)ccc1NS(=O)(=O)c1ccccc1F [Example 153] | – | – | – | – | 44% | –
21 | Cc1cc(-c2nn(C)c3nc(NCCN4CCOCC4)ncc23)ccc1NS(=O)(=O)c1ccc(Cl)s1 [Example 154] | – | – | – | – | 37% | –
22 | Cc1cc(-c2nn(C)c3nc(NCCN4CCOCC4)ncc23)ccc1NS(=O)(=O)c1cc(Cl)sc1Cl [Example 155] | – | – | – | – | 23% | –
23 | Cn1nc(-c2ccc(NS(=O)(=O)c3cccc(C(F)(F)F)c3)cc2)c2cnc(NCCN3CCOCC3)nc21 [Example 156] | – | – | – | – | 23% | –
